In patent US20090203877A1, “X-RAY-DENSE CONJUGATE” (Eberhard-Karls-Universitaet Tuebingen Universitaetsklinkum, priority 2006, published 2009):
“Also recorded” adds a separate entry of the source.

Tests used:
Type in all cases: cell-based
[1] = tested on: human malignant LN18 glioma cells; test: Cell viability / cell death (annexin-V-Alexa 568 binding, propidium iodide, FACS scatter morphology); details: 260 μM, 20 min, substance alone
Procedure: All measurements were performed on living, non-fixed cells. […] All measurements were performed on living cells. […] All measurements were performed on living cells in triplicates. […] All measurements were performed on living cells.

[2] = tested on: human malignant U373 glioma cells; test: Computer tomography, signal density of cell pellets; details: 260 μM, 20 min
Procedure: (§1) For CT and FACS human U373 glioma cells were grown under the same conditions in 75 cm^2 culture flasks (Corning Costar, Bodenheim, Germany) (70% confluency). Accutase™ (PAA laboratories, Pasching, Austria) was added to achieve detachment of the cells which were harvested and subsequently aliquoted into Eppendorf tubes (6×10^6 cells per tube). As in the investigations performed by fluorescence microscopy, the cells in the first tube served as a control (PBS only). The cells in the other tubes were incubated with 260 μM Ultravist, 260 μM TIBA in PBS and 26 μM, 260 μM and 2.6 mM conjugates 1-4 in PBS. After a 20 minute incubation period at 37° C. in an atmosphere of 5% CO2, the cells were washed three times in PBS and centrifuged at 800 rpm for 5 minutes.
The inner ear spiral CT protocol consisted of: tube voltage 120 KV, effective mAs 550, time of imaging TI: 1.5, SL 0.75/0.75/4.5, FOV: 50 0/52, kernel: U70, window: intervertebral disc.
3D-images were obtained using InSpace Software (Syngo CT 2006G) (Siemens AG, Erlangen, Germany).
(§2) After an incubation of 20 minutes at 37° C./5% CO2 the cells were washed three times with PBS buffer and centrifuged at 800 rpm (rounds per minute) for 5 minutes. The fluorescence was measured in Becton Dickinson FACSCalibur as described under 1.4. The computer tomography was performed as described under 1.5.1. The examinations were repeated two times. […]
An Orbita CT spiral was used: tube voltage 120 KV, effective mAs 550, time of imaging TI: 1.5, SL 0.75/0.75/4.5, FOV: 50 0/52, GT: 0.0, kernel: U70, window: intervertebral disc. 3D images were made with the InSpace Software (Syngo CT 2006G) (Siemens AG, Erlangen, Germany). […]

[3] = tested on: human malignant LN18 glioma cells; test: Uptake/staining of cells by FITC-labelled conjugates (CLSM, FACS, semi-thin sections); details: 260 μM; for nuclear staining of cells (CLSM), in words: 20 min; for heavily stained cells: FIGS. 8, 13-16; for staining of nucleoli in semi-thin sections (about 0.4 μm): after incubation
Procedure: (§3) The human malignant U373 and LN18 glioma cells were cultivated in 75 cm^2 culture flasks (Corning Costar) (70% confluency) under the conditions as described under 1.4, detached from the flask bottom with Accutase™ (PAA Laboratories) and in the following distributed on Eppendorf tubes (Eppendorf, Hamburg, Germany) (6×10^6 per tube). The cells in the first tube serve as a control (only PBS buffer only). The cells in the other ten tubes were each incubated with benzoic acid (BA), monoiodobenzoic acid (MIBA) or diiodobenzoic acid (DIBA) alone (260 μM), conjugate 3 alone (260 μM), conjugate 3 plus either BA, MIBA or DIBA (260 μM), respectively, and the conjugates 9, 10, and 11 alone. (260 μM).
as §2
(§4) The FACS analysis was performed as described under 1.4. The assay was repeated two times.
(§5) For the CT and FACS examinations human LN18 and U373 glioma cells were cultivated in 75 cm^2 culture flasks (70% confluency) (conditions as described under section 1). Accutase™ (PAA Laboratories) was added to detach the cell from the culture bottom. The cells were collected and then distributed on Eppendorf-tubes (6×10^6 cells per tube). […] The next three tubes were used for the coincubation of the cells either with trichlorobenzoic acid (TCBA), trifluorobenzoic acid (TFBA) or tribromophenyl Isocyanat (TBPI) and the NLS-FITC-conjugate 3 (260 μM). As control cells were used which were only either incubated with CIBA, FIBA, TBPI (in each case 260 μM in PBS) or with PBS-buffer (native control) alone. […] The computer tomography and FACS analysis of the cell centrifuges were performed as described in 1.5.1 or 1.4, respectively for three times.
All measurements were performed on living cells.
All measurements were performed on living cells in triplicates.
A part of the cells which were stained for the FACS analysis, was fixed by paraformaldehyl with 2% Agar, dehydrogenized in ethanol, embedded in Lowicryl K4M (Polysciences, Eppelheim, Germany) and according to the information of the manufacturer UV-polymerised at room temperature. Semi-thin sections (about 0.4 μm) were cut and evaluated by means of fluorescence microscopy.

[4] = tested on: human malignant LN18 glioma cells; test: Computer tomography, signal density of cell centrifugates; details: 260 μM, 20 min
Procedure: After an incubation of 20 minutes at 37° C./5% CO2 the cells were washed three times with PBS buffer and centrifuged at 800 rpm (rounds per minute) for 5 minutes. The fluorescence was measured in Becton Dickinson FACSCalibur as described under 1.4. The computer tomography was performed as described under 1.5.1. The examinations were repeated two times. For the CT and FACS examinations human LN-18 and U373 glioma cells were cultivated in 75 cm^2 culture flasks (Corning Costar) (70% confluency) (conditions as described under 1.4). Accutase™ (PAA Laboratories) was added to detach the cells from the bottom of the culture flasks. The cells were collected and then distributed on Eppendorf tubes (6×10^6 cells per tube). The cells in the first two tubes serve as a control (in each case only PBS, LN18 and U373 glioma cells, native). The cells in the other tubes (in each case LN18 and U373 glioma cells) were incubated with a 260 μM or 2.6 mM solution of the conjugate 12 for 20 minutes at 37° C. and 5% CO2 and in the following washed for three times with PBS buffer and centrifuged for 5 minutes with 800 rpm (rounds per minute). For a small amount of the cells it was tested by the MMT test (see 1.4) how many of the cells were still viable. The computer tomography of the cell centrifuges was performed with the Somatom Sensation 16 (Siemens). An Orbita CT spiral was used: tube voltage 120 KV, effective mAs 550, time of imaging TI: 1.5, SL 0.75/0.75/4.5, FOV: 50 0/52, GT: 0.0, kernel: U70, window: intervertebral disc. 3D images were made with the InSpace Software (Syngo CT 2006G) (Siemens AG, Erlangen, Germany). […] Accutase™ (PAA Laboratories) was added to detach the cell from the culture bottom. The cells were collected and then distributed on Eppendorf-tubes (6×10^6 cells per tube).

[5] = tested on: human malignant U373 glioma cells; test: Uptake/staining of cells by FITC-labelled conjugates (fluorescence microscopy, CLSM, FACS, semi-thin sections); details: 260 μM
Procedure: Fluorescence was measured in a Becton Dickinson FACSCalibur. […] The investigations were performed in triplicate.
as §1
The FACS analysis was performed as described under 1.4.
as §3
After an incubation of 20 minutes at 37° C./5% CO2 the cells were washed three times with PBS buffer and centrifuged at 800 rpm (rounds per minute) for 5 minutes. The fluorescence was measured in Becton Dickinson FACSCalibur as described under 1.4. The computer tomography was performed as described under 1.5.1. The examinations were repeated two times.
For the CT and FACS examinations human LN-18 and U373 glioma cells were cultivated in 75 cm^2 culture flasks (Corning Costar) (70% confluency) (conditions as described under 1.4). Accutase™ (PAA Laboratories) was added to detach the cells from the bottom of the culture flasks. The cells were collected and then distributed on Eppendorf tubes (6×10^6 cells per tube). The cells in the first two tubes serve as a control (in each case only PBS, LN18 and U373 glioma cells, native). The cells in the other tubes (in each case LN18 and U373 glioma cells) were incubated with a 260 μM or 2.6 mM solution of the conjugate 12 for 20 minutes at 37° C. and 5% CO2 and in the following washed for three times with PBS buffer and centrifuged for 5 minutes with 800 rpm (rounds per minute). For a small amount of the cells it was tested by the MMT test (see 1.4) how many of the cells were still viable. The computer tomography of the cell centrifuges was performed with the Somatom Sensation 16 (Siemens).
as §4
as §5, with “times. […]” for “times.”

| Substance | cell death / vitality (annexin-V-Alexa 568, propidium iodide) [1] | CT signal density of cell pellets [2] | cells strongly stained by FITC, FACS histogram [3] | nuclear staining of cells (CLSM), in words [3] | heavily stained cells [3] [%] | staining of nucleoli in semi-thin sections (about 0.4 μm) [3] | CT signal density of cell centrifugates [4] | cells strongly stained by FITC, FACS histogram [5] | cell death / vitality (annexin-V-Alexa 568, propidium iodide) ([1]; listed as K15) | nuclear staining of cells (CLSM), in words ([3]; listed as K15) |
| --- | --- | --- | --- | --- | --- | --- | --- | --- | --- | --- |
| PKKKRKVK(FITC)GGK(TFBA) (PKKKRKVKGGK; FITC, GGK linker, TFBA) [conjugate 13, FITC-labelled NLS with trifluorobenzoic acid] | no longer vital; also recorded: signs of cell death | did not result in an increase of the signal density | shift of the histogram peak to the right | stains a large number of cells in the nucleus | 78 | accumulate in the nucleoli | did not result in an increase of the signal density | shift of the histogram peak to the right | – | – |
| PKKKRKVK(FITC)GGK(TCBA) (PKKKRKVKGGK; FITC, GGK linker, TCBA) [conjugate 14, FITC-labelled NLS with trichlorobenzoic acid] | dead and signs of cell death | did not result in an increase of the signal density | shift of the histogram peak to the right | almost all nuclei are stained | 78 | accumulate in the nucleoli | did not result in an increase of the signal density | shift of the histogram peak to the right | – | – |
| PKKKRKVK(FITC)GGK(TBPI) (PKKKRKVKGGK; FITC, GGK linker, TBPI) [conjugate 15, FITC-labelled tribromophenyl isocyanate-NLS-conjugate] | signs of cell death | did not result in an increase of the signal density | clear increase of the cells which are strongly stained by FITC | – | 78 | strongly stained; also recorded: accumulate in the nucleoli | did not result in an increase of the signal density | clear increase of the cells which are strongly stained by FITC | Alexa-annexin binds to the surface of the cells | strong staining of the nucleus in almost all cells; also recorded: nuclei of the LN18 glioma cells accumulate |
